# From US7750003B2, “Compounds-943” (AstraZeneca AB, priority 2006, dated 2010)
# Several values for one entry are separate records, joined by “and”; a condition that tells them apart may be missing. Equal values may be shown once.
# How the values were obtained:
# p110α Type Ia human PI3K = molecular target: T1, p110α Type Ia human PI3K (Homo sapiens, UniProt P42336); assay: In vitro PI3K enzyme assay (Test (b), AlphaScreen), p110α; assay type: biochemical; details: ATP 4 μM, read-out: Test (b): IC50 versus p110α Type Ia human PI3K
# T1 construct: full length DNA of each of the p110α, p110β and p110δ Type Ia human PI3K p110 isoforms; 6-His; made in house
# From the text: (b) In Vitro PI3K Enzyme Assay
# The assay used AlphaScreen technology (Gray et al., Analytical Biochemistry, 2003, 313: 234-245) to determine the ability of test compounds to inhibit phosphorylation by recombinant Type I PI3K enzymes of the lipid PI(4,5)P2.
# DNA fragments encoding human PI3K catalytic and regulatory subunits were isolated from cDNA libraries using standard molecular biology and PCR cloning techniques. The selected DNA fragments were used to generate baculovirus expression vectors. In particular, full length DNA of each of the p110α, p110β and p110δ Type Ia human PI3K p110 isoforms (EMBL Accession Nos. HSU79143, S67334, Y10055 for p110α, p110β and p110δ respectively) were sub-cloned into a pDEST10 vector (Invitrogen Limited, Fountain Drive, Paisley, UK). The vector is a Gateway-adapted version of Fastbac1 containing a 6-His epitope tag. […]
# Biotinylated-DiC8-PI(3,4,5)P3 (50 nM; Cell Signals Inc., Catalogue No. 107), recombinant purified GST-Grp1 PH protein (2.5 nM) and AlphaScreen Anti-GST donor and acceptor beads (100 ng; Packard Bioscience Limited, Station Road, Pangbourne, Berkshire, UK, Catalogue No. 6760603M) were added and the assay plates were left for about 5 to 20 hours at room temperature in the dark. The resultant signals arising from laser light excitation at 680 nm were read using a Packard AlphaQuest instrument. […]
# [1] = molecular target: recombinant mTOR (FLAG-tagged, residues 1362-2549) (Homo sapiens, UniProt P42345); assay: In vitro mTOR kinase assay (Test (a), AlphaScreen); assay type: biochemical; details: ATP 20 μM, read-out: Test (a): IC50 versus mTOR kinase
# Summary of the method: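 AlphaScreen read-out: a phospho-T389 p70 S6K antibody on acceptor beads captures the phosphorylated biotin-peptide on donor beads, with signal loss indicating inhibition.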
# [2] = system: phosphorylation of Serine 473 in Akt in MDA-MB-468 human breast adenocarcinoma cells; assay: In vitro phospho-Ser473 Akt assay (Test (c)); assay type: cell-based; details: Homo sapiens, MDA-MB-468, 2 h, MDA-MB-468 cells, 2 hours incubation; read-out: Test (c): IC50 versus Serine 473 in Akt
# Summary of the method: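 MDA-MB-468 cells (15000/well, adhered overnight) treated with compound for 2 h at 37 °C, 5% CO2. After formaldehyde fixation, permeabilisation and blocking, phospho-Akt Ser473 immunostained with Alexafluor488 secondary and quantified by laser-scanning imaging (Acumen Explorer); IC50 from fluorescence dose–response.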
# Sequence of recombinant mTOR (FLAG-tagged, residues 1362-2549) (P42345 1362-2549): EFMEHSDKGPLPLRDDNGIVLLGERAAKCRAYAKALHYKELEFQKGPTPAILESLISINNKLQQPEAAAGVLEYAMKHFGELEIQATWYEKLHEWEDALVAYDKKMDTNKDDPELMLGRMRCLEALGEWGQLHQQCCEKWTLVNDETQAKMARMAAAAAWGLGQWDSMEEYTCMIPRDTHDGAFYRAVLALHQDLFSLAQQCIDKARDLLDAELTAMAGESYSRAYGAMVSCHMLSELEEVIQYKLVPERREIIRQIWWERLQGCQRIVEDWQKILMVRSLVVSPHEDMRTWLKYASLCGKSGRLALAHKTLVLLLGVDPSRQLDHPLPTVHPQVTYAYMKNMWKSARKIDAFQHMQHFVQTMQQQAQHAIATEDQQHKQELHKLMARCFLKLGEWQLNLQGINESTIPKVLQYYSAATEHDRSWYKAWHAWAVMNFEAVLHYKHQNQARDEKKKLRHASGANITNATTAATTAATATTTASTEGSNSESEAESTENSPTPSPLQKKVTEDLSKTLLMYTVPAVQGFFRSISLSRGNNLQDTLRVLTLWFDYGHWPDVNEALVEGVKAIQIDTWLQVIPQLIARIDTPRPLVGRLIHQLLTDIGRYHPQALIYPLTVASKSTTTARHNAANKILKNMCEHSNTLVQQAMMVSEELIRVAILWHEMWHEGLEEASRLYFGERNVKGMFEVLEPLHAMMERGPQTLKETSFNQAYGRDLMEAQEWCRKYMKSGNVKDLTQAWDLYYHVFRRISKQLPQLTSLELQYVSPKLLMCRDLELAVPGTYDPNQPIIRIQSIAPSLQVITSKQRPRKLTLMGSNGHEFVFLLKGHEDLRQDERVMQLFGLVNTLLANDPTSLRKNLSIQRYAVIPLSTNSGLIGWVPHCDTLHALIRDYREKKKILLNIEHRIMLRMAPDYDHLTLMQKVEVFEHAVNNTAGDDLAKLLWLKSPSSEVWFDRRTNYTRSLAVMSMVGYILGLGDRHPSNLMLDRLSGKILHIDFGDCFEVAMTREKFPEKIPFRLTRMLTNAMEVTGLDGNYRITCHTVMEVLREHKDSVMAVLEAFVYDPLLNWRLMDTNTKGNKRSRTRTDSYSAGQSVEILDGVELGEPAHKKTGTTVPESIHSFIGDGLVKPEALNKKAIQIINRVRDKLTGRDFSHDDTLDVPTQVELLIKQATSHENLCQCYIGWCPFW
# T1 sequence (P42336 whole entry, canonical isoform): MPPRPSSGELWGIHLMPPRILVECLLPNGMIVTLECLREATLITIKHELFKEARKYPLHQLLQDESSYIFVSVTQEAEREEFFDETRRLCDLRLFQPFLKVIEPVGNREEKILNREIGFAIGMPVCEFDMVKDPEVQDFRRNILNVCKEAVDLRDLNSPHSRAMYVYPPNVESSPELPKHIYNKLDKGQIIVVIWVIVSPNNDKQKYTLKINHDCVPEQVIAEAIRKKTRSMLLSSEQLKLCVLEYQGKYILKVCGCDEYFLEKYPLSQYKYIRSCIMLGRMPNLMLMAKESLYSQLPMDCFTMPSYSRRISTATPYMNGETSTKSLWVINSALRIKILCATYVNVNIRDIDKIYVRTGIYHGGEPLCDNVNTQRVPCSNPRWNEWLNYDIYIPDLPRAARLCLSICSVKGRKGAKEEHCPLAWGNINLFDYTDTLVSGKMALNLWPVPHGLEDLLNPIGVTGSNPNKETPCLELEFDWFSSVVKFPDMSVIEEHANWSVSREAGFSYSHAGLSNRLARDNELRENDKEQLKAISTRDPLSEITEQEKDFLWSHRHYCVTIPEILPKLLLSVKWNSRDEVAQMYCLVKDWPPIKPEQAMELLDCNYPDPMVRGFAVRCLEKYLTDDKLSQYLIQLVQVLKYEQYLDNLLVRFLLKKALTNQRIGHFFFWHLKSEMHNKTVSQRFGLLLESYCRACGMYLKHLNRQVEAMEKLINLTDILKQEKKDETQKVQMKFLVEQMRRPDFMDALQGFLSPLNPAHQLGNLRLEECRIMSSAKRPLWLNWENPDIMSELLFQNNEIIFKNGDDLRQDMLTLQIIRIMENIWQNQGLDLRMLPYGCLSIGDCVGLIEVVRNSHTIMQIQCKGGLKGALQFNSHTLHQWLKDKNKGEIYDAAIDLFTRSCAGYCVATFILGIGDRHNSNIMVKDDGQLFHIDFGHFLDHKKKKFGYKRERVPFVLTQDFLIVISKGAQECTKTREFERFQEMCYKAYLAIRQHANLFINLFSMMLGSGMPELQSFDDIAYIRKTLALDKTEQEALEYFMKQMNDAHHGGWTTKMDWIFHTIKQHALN
# T1 sequence (P27986 whole entry partner, canonical isoform): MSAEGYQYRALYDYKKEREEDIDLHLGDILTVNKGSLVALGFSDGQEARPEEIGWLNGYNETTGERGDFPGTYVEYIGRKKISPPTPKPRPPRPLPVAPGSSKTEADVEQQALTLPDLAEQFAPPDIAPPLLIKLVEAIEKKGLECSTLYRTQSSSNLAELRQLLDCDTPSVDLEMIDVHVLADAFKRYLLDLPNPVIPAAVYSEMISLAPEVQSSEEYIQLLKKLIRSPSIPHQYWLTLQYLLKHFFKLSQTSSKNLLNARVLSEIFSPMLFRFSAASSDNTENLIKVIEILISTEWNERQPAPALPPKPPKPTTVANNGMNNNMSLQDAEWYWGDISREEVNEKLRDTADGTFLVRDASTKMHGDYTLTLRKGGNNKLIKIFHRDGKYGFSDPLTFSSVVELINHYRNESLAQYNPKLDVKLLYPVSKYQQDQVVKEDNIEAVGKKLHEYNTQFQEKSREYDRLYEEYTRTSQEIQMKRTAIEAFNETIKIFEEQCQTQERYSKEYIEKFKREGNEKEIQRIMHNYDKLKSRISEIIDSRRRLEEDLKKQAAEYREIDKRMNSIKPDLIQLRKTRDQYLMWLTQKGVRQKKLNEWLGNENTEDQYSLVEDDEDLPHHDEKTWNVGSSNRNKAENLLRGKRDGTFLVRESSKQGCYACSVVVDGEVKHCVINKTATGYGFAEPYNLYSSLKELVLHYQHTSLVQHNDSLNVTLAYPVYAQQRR
IC50 (p110α Type Ia human PI3K),IC50 [1],IC50 [2] [nM],SMILES
91200 nM and 57800 nM,120 nM and 155 nM and 93 nM,,"Cc1cc(NC(=O)Nc2ccc(-c3nc(CS(C)(=O)=O)cc(N4CCOCC4)n3)cc2)no1 [Example 34b, 1-(5-methyl-1,2-oxazol-3-yl)-3-[4-[4-(methylsulfonylmethyl)-6-morpholin-4-yl-pyrimidin-2-yl]phenyl]urea]"
,,300,"C[C@H]1COCCN1c1cc(C(C)(C)S(=O)(=O)C(C)(C)C)nc(-c2ccc(NC(=O)NCCO)cc2)n1 [Example 66g, 3-(2-hydroxyethyl)-1-[4-[4-[(3S)-3-methylmorpholin-4-yl]-6-(2-tert-butylsulfonylpropan-2-yl)pyrimidin-2-yl]phenyl]urea]"
